Reference: publication PMC8322037 (International Journal of Biological Macromolecules, 2021)
pIC50: −log10 of the molar value.

Biological target: SARS-CoV-2 3CL^pro (Severe acute respiratory syndrome coronavirus 2, UniProt P0DTD1)
Assay: biochemical
Settings: for Ratio (IC50 0.5 min / IC50 60 min): IC50 shift between 0.5 min and 60 min preincubation

| Compound | Ratio (IC50 0.5 min / IC50 60 min) | pIC50 (IC50 0.5 (min)) | pIC50 (IC50 60 (min)) | pIC50 (IC50 (three different doses), assayed by using three different doses, Fig. 4) |
| --- | --- | --- | --- | --- |
| Myricitrin | 8.32 |  |  |  |
| O=C1c2c(O)cc(O)cc2OC(c2ccc(O)c(O)c2)C1O (centres unmarked) [Taxifolin] | >2.75 | < 3.70 | 4.14 | 4.00 to 5.00 |
